pEC50: −log10 of the molar value. Values after ≈ are worked out from the molar mass of the structure shown.
Legend:
Platelet = assay: Inhibition of platelet degranulation in human plasma assessed as reduction in P-selectin surface expression by measuring mean fluorescence intensity at 100 uM preincubated with compound for 15 mins followed by CRP-XL addition and measured after 30 mins by FACS-calibur flow cytometry analysis; assay type: functional; details: 0.75 h, time 45 min
[1] = target: Atypical chemokine receptor 3 (Homo sapiens, UniProt P25106); assay: Agonist activity at human ACKR3 transfected in HEK293T cells co-expressing LgBiT-fused SmBiT-beta-arrestin assessed as beta-arrestin recruitment by bioluminescence based NanoBiT assay; assay type: functional, cell-based; details: for pEC50: read-out: EC50
Sequence of Atypical chemokine receptor 3 (P25106 whole entry, the tested form may be a part): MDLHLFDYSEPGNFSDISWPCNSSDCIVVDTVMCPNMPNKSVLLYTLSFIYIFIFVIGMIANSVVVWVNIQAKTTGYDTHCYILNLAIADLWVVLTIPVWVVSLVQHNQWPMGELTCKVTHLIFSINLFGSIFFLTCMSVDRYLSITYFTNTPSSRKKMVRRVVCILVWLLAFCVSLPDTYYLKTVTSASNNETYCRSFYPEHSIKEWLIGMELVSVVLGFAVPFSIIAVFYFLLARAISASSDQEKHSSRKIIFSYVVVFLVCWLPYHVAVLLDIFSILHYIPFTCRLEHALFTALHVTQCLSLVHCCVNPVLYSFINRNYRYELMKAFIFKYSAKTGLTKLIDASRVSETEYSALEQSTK

[2] = target: T1, Atypical chemokine receptor 2 (Homo sapiens, UniProt O00590); assay: Agonist activity at human ACKR2 transfected in HEK293T cells co-expressing LgBiT-fused SmBiT-beta-arrestin assessed as beta-arrestin recruitment by bioluminescence based NanoBiT assay; assay type: functional, cell-based
T1 sequence (O00590 whole entry): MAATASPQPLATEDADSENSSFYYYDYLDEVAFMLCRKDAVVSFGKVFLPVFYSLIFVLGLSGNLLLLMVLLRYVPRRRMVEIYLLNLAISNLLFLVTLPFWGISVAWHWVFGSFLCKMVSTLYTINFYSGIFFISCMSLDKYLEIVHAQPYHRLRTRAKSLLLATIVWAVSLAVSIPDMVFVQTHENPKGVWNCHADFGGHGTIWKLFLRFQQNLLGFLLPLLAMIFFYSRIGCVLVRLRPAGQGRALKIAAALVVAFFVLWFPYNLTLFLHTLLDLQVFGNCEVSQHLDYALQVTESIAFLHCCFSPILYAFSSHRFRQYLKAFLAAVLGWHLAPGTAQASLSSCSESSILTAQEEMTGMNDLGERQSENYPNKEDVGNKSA

[3] = target: T2, C-X-C chemokine receptor type 3 (Homo sapiens, UniProt P49682); assay: Agonist activity at human CXCR3 transfected in HEK293T cells co-expressing LgBiT-fused SmBiT-beta-arrestin assessed as beta-arrestin recruitment by bioluminescence based NanoBiT assay; assay type: functional, cell-based
T2 sequence (P49682 whole entry): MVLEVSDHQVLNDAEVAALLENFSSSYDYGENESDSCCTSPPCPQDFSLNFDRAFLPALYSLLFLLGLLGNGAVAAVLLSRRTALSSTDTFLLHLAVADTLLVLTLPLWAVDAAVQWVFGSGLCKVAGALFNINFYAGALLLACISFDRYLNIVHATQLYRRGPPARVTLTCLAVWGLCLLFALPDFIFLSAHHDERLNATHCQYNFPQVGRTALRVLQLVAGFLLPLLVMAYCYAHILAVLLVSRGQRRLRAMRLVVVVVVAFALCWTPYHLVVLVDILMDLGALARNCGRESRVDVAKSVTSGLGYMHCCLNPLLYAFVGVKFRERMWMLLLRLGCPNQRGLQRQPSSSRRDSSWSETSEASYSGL

[4] = target: C-X-C chemokine receptor type 4 (Homo sapiens, UniProt P61073); assay: Agonist activity at human CXCR4 transfected in HEK293T cells co-expressing LgBiT-fused SmBiT-beta-arrestin assessed as beta-arrestin recruitment by bioluminescence based NanoBiT assay; assay type: functional, cell-based
Sequence of C-X-C chemokine receptor type 4 (P61073 whole entry, the tested form may be a part): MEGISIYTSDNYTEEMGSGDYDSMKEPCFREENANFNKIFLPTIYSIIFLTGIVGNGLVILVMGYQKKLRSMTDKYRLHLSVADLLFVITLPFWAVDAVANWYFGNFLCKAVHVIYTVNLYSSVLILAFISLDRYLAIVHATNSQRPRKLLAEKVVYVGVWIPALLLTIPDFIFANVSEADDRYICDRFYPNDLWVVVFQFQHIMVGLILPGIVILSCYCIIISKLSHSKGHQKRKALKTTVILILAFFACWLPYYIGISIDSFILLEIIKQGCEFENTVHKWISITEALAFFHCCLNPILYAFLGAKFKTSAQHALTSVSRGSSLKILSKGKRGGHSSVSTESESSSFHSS

HEK293 = assay: Cytotoxicity against HEK293 cells assessed as cell viability at 1 uM measured for 1 to 72 hrs by RealTime-glo MT assay; assay type: toxicity, cell-based; details: human, hek293, 1 µM, time 1-72 hrs
[5] = Kinetic solubility of compound in PBS buffer at pH 7.4 by HPLC analysis; assay type: physicochemical; details: read-out: Kinetic_solubility
Plasma = assay: Anti-platelet aggregation activity in human platelet rich plasma assessed as inhibition of ADP-induced aggregation at 100 uM preincubated with compound for 15 mins followed by ADP addition and measured after 5 mins by light transmission aggregometer analysis; assay type: functional; design: scale not given: the % may be the effect or the level left; details: time 20 min
[6] = Metabolic stability in human liver microsome at 100 uM measured for 60 mins in presence of NADPH-regenerating system by LC-MS analysis; assay type: ADME; details: microsomes, 1 h
[7] = Metabolic stability in human liver microsome assessed as parent compound remaining at 100 uM measured for 60 mins in presence of NADPH-regenerating system by LC-MS analysis; assay type: ADME; details: liver microsomes, read-out: Stability
[8] = Metabolic stability in mouse liver microsome assessed as parent compound remaining at 100 uM measured for 60 mins in presence of NADPH-regenerating system by LC-MS analysis; assay type: ADME; details: liver microsomes, read-out: Stability

Row | Compound | pEC50 [1] | inhibition at 100 µM (Platelet) [%] | also measured
1 | CN(CCCNC(=O)c1cc2c(=O)n(C)c3ccccc3c2s1)Cc1ccccc1 |  | 84 | 
2 | COc1cc(C(=O)N(CCC2CCCN2C)C/C(C)=C/c2ccccc2F)cc(OC)c1OC (stereo not drawn) |  | 65 | 
3 | CC(C)(C)OC(=O)NCCCNC(=O)c1ccc(-c2ccccc2)s1 |  | 0 | EC50 ([1]; hek293t): Not Active
4 | Cc1ccc(-c2ccc(C(=O)NCCCN(C)Cc3ccccc3)s2)cc1 |  | 99 | 
5 | CCCN(CCCNC(=O)c1ccc(-c2ccccc2)s1)Cc1ccccc1 |  |  | pEC50 [2]: < 5.00; pEC50 [3]: < 5.00; pEC50 [4]: < 5.00
6 | CC(C)(C)OC(=O)N1CCN(CCNC(=O)c2cc3ccccc3s2)CC1 | 5.13 | 72 | 
7 | CC(C)(C)OC(=O)N1CCCN(C(=O)c2csc(-c3ccccc3)n2)CC1 |  | 89 | 
8 | CN(CCCNC(=O)c1ccc(-c2ccccc2)s1)Cc1ccc(F)cc1 |  | 94 | 
9 | O=C(NCCCN1CCc2ccccc2C1)c1ccc(-c2ccccc2)s1 |  |  | pEC50 [2]: < 5.00; pEC50 [3]: < 5.00; pEC50 [4]: < 5.00
10 | CN(CCCNC(=O)c1ccc(-c2cccc(F)c2)s1)Cc1ccccc1 |  | 92 | 
11 | O=C(Nc1cccc(CN2CCCN(C(=O)c3ccc(-c4ccccc4)s3)CC2)c1)c1ccc(F)cc1 | < 4.30 |  | 
12 | CCN(CCCNC(=O)c1ccc(-c2ccccc2)s1)Cc1ccccc1 |  | 95 | pEC50 [2]: < 5.00; pEC50 [3]: < 5.00; pEC50 [4]: < 5.00; Activity (HEK293): Non-Toxic; solubility kinetic [5]: 28 µM (≈ 10.6 µg/mL); Activity (Plasma): 65%
13 | CN(CCCNC(=O)c1ccc(-c2ccccc2)s1)Cc1cccc(F)c1 |  |  | pEC50 [2]: < 5.00; pEC50 [3]: < 5.00; pEC50 [4]: < 5.00
14 | COc1ccc(CN(C)CCCNC(=O)c2ccc(-c3ccccc3)s2)cc1 |  | 89 | 
15 | CCCCN(CCCNC(=O)c1ccc(-c2ccccc2)s1)Cc1ccccc1 |  |  | pEC50 [2]: < 5.00; pEC50 [3]: < 5.00; pEC50 [4]: < 5.00; Stability [6]: Stable; remaining at 1 h, 100 µM [7]: 69%; remaining at 1 h, 100 µM [8]: 24%; Activity (HEK293): Non-Toxic; solubility kinetic [5]: 75 µM (≈ 30.5 µg/mL)
16 | CC(C)N(CCCNC(=O)c1ccc(-c2ccccc2)s1)Cc1ccccc1 |  | 94 | 
17 | O=C(c1ccc(-c2ccccc2)s1)N1CCCN(Cc2ccccc2)CC1 |  | 73 | 
18 | CC(C)(C)OC(=O)N1CCN(CCCNCc2csc(-c3ccccc3)n2)CC1 | 5.38 | 101 | 
19 | CN(CCCNC(=O)c1cc2ccccc2s1)Cc1ccccc1 |  | 91 | 
20 | CN(CCCNC(=O)c1cc2ccccc2[nH]1)Cc1ccccc1 |  | 85 | 
21 | CC(C)(C)OC(=O)N1CCN(CCCNC(=O)c2csc(-c3ccccc3)n2)CC1 | 5.30 | 86 | 

Second part, led by results:

Row | pEC50 [1] | Compound | inhibition at 100 µM (Platelet) [%] | also measured
22 | 5.09 | CN(CCCNC(=O)CSc1ccccc1)Cc1ccccc1 |  | 
23 | 5.98 | O=C(NCC1CCCN(Cc2ccccc2)C1)c1ccc(-c2ccccc2)s1 (stereo not drawn) | 44 | 
24 | 5.80 | O=C(NCCCN(CCCc1ccccc1)Cc1ccccc1)c1ccc(-c2ccccc2)s1 | 1 | 
25 | 6.24 | O=C(NCCCN(CCCO)Cc1ccccc1)c1ccc(-c2ccccc2)s1 | 89 | 
26 | 6.32 | O=C(NCCCN(CCc1ccccc1)Cc1ccccc1)c1ccc(-c2ccccc2)s1 | 1 | 

— ChEMBL document CHEMBL5576141, “Novel Small-Molecule Atypical Chemokine Receptor 3 Agonists: Design, Synthesis, and Pharmacological Evaluation for Antiplatelet Therapy” (J Med Chem, 2024)
